Data as given in article PMC10408569, “Recruitment of hexahydroquinoline as anticancer scaffold targeting inhibition of wild and mutants EGFR (EGFR^WT, EGFR^T790M, and EGFR^L858R)” (Journal of Enzyme Inhibition and Medicinal Chemistry, 2023).

Legend:
NCI-H226 = experiment: NCI-60 anticancer screening (SRB); format: cell-based; settings: Homo sapiens; NCI-H226, NSC lung cancer; one dose 10 μM; read-out: Growth Inhibition Percentage (GI %)
EGFR^T790M = EGFR^T790M (Homo sapiens, UniProt P00533, T790M); experiment: biochemical
EGFR^T790M, sequence (P00533 25-1210 T790M): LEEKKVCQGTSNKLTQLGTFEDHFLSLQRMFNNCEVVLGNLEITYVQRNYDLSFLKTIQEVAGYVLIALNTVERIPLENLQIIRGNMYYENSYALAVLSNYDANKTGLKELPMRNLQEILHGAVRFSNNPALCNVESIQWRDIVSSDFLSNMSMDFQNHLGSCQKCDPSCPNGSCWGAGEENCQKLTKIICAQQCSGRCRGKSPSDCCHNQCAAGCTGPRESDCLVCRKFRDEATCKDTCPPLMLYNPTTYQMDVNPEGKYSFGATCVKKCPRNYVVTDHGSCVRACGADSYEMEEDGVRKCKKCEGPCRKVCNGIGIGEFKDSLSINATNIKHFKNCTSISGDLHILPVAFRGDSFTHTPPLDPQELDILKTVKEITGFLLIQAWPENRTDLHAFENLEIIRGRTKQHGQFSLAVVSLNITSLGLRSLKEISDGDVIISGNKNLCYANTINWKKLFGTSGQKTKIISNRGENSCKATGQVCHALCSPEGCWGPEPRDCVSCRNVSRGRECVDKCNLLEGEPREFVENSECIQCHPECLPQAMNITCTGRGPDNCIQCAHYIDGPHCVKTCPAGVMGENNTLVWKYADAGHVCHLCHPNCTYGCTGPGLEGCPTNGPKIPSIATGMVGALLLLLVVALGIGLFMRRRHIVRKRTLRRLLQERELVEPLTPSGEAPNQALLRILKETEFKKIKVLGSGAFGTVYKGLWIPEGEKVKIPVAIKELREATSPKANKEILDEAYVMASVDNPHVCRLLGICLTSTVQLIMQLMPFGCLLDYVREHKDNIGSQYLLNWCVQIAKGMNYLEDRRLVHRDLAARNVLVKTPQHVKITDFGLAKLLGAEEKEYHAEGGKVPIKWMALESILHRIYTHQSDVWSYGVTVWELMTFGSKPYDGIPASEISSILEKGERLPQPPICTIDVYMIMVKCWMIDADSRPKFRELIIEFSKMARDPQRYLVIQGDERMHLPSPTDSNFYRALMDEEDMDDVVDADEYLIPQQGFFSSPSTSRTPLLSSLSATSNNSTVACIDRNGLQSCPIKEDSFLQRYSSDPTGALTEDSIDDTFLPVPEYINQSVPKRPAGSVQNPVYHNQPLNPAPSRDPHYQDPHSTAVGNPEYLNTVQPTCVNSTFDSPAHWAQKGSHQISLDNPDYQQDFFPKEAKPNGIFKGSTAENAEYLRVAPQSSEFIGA

UACC-257 = experiment: NCI-60 anticancer screening (SRB); format: cell-based; settings: Homo sapiens; UACC-257, melanoma; one dose 10 μM; read-out: Growth Inhibition Percentage (GI %)
OVCAR-3 = experiment: NCI-60 anticancer screening (SRB); format: cell-based; settings: Homo sapiens; OVCAR-3, ovarian cancer; one dose 10 μM; read-out: Growth Inhibition Percentage (GI %)
OVCAR-5 = experiment: NCI-60 anticancer screening (SRB); format: cell-based; settings: Homo sapiens; OVCAR-5, ovarian cancer; one dose 10 μM; read-out: Growth Inhibition Percentage (GI %)
CCRF-CEM = experiment: NCI-60 anticancer screening (SRB); format: cell-based; settings: Homo sapiens, leukemia, one dose 10 μM, read-out: Growth Inhibition Percentage (GI %)
UO-31 = experiment: NCI-60 anticancer screening (SRB); format: cell-based; settings: Homo sapiens; UO-31, renal cancer; one dose 10 μM; read-out: Growth Inhibition Percentage (GI %)
SW-620 = experiment: NCI-60 anticancer screening (SRB); format: cell-based; settings: Homo sapiens; SW-620, colon cancer; one dose 10 μM; read-out: Growth Inhibition Percentage (GI %)
U251 = experiment: NCI-60 anticancer screening (SRB); format: cell-based; settings: Homo sapiens, U-251; U251, CNS cancer; one dose 10 μM; read-out: Growth Inhibition Percentage (GI %)
PC-3 = experiment: NCI-60 anticancer screening (SRB); format: cell-based; settings: Homo sapiens; PC-3, prostate cancer; one dose 10 μM; read-out: Growth Inhibition Percentage (GI %)
SR = experiment: NCI-60 anticancer screening (SRB); format: cell-based; settings: Homo sapiens, leukemia, one dose 10 μM, read-out: Growth Inhibition Percentage (GI %)
LOX IMVI = experiment: NCI-60 anticancer screening (SRB); format: cell-based; settings: Homo sapiens, melanoma, one dose 10 μM, read-out: Growth Inhibition Percentage (GI %)
MCF7 = experiment: NCI-60 anticancer screening (SRB); format: cell-based; settings: Homo sapiens; MCF7, breast cancer; one dose 10 μM; read-out: Growth Inhibition Percentage (GI %)
EGFR^L858R = EGFR^L858R (Homo sapiens, UniProt P00533, L858R); experiment: biochemical
EGFR^L858R, sequence (P00533 25-1210 L858R): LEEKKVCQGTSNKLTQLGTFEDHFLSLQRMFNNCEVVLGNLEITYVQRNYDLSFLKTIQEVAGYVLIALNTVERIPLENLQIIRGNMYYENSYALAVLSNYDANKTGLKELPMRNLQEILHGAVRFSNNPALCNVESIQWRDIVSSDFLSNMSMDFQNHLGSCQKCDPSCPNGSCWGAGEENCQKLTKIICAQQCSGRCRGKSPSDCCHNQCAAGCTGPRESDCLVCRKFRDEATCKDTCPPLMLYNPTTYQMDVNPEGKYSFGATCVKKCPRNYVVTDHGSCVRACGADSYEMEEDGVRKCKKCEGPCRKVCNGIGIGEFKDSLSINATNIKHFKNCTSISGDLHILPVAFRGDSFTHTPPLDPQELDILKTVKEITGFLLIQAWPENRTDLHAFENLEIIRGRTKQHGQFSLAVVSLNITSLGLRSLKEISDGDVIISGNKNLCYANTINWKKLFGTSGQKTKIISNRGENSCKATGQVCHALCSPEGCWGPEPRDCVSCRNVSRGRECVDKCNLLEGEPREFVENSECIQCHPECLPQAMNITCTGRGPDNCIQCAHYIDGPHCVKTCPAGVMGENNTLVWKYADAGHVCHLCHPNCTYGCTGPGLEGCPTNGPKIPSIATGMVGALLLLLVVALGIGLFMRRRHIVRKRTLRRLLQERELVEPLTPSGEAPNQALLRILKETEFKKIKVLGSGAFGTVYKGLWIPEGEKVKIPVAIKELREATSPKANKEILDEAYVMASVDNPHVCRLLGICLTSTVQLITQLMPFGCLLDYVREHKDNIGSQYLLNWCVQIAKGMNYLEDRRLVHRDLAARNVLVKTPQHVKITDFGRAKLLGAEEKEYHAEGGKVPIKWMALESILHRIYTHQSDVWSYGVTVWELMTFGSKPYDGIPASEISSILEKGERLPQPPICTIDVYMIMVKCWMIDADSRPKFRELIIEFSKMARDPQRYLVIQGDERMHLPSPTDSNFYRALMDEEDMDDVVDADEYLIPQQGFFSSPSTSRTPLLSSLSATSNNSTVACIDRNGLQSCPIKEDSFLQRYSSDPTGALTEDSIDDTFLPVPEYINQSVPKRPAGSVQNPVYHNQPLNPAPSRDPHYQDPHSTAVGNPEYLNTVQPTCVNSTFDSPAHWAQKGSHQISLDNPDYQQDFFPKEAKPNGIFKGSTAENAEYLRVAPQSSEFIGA

A498 = experiment: NCI-60 anticancer screening (SRB); format: cell-based; settings: Homo sapiens; A498, renal cancer; one dose 10 μM; read-out: Growth Inhibition Percentage (GI %)
BT-549 = experiment: NCI-60 anticancer screening (SRB); format: cell-based; settings: Homo sapiens; BT-549, breast cancer; one dose 10 μM; read-out: Growth Inhibition Percentage (GI %)
OVCAR-4 = experiment: NCI-60 anticancer screening (SRB); format: cell-based; settings: Homo sapiens; OVCAR-4, ovarian cancer; one dose 10 μM; read-out: Growth Inhibition Percentage (GI %)
COLO 205 = experiment: NCI-60 anticancer screening (SRB); format: cell-based; settings: Homo sapiens; COLO 205, colon cancer; one dose 10 μM; read-out: Growth Inhibition Percentage (GI %)
ACHN = experiment: NCI-60 anticancer screening (SRB); format: cell-based; settings: Homo sapiens, renal cancer, one dose 10 μM, read-out: Growth Inhibition Percentage (GI %)
MALME-3M = experiment: NCI-60 anticancer screening (SRB); format: cell-based; settings: Homo sapiens, melanoma, one dose 10 μM, read-out: Growth Inhibition Percentage (GI %)
K-562 = experiment: NCI-60 anticancer screening (SRB); format: cell-based; settings: Homo sapiens, K562; K-562, leukemia; one dose 10 μM; read-out: Growth Inhibition Percentage (GI %)
SK-OV-3 = experiment: NCI-60 anticancer screening (SRB); format: cell-based; settings: Homo sapiens; SK-OV-3, ovarian cancer; one dose 10 μM; read-out: Growth Inhibition Percentage (GI %)
IGROV1 = experiment: NCI-60 anticancer screening (SRB); format: cell-based; settings: Homo sapiens, IGROV-1; IGROV1, ovarian cancer; one dose 10 μM; read-out: Growth Inhibition Percentage (GI %)
EGFR^WT = EGFR^WT (Homo sapiens, UniProt P00533); experiment: EGFR kinase inhibitory assay (HTRF)
EGFR^WT, sequence (P00533 25-1210): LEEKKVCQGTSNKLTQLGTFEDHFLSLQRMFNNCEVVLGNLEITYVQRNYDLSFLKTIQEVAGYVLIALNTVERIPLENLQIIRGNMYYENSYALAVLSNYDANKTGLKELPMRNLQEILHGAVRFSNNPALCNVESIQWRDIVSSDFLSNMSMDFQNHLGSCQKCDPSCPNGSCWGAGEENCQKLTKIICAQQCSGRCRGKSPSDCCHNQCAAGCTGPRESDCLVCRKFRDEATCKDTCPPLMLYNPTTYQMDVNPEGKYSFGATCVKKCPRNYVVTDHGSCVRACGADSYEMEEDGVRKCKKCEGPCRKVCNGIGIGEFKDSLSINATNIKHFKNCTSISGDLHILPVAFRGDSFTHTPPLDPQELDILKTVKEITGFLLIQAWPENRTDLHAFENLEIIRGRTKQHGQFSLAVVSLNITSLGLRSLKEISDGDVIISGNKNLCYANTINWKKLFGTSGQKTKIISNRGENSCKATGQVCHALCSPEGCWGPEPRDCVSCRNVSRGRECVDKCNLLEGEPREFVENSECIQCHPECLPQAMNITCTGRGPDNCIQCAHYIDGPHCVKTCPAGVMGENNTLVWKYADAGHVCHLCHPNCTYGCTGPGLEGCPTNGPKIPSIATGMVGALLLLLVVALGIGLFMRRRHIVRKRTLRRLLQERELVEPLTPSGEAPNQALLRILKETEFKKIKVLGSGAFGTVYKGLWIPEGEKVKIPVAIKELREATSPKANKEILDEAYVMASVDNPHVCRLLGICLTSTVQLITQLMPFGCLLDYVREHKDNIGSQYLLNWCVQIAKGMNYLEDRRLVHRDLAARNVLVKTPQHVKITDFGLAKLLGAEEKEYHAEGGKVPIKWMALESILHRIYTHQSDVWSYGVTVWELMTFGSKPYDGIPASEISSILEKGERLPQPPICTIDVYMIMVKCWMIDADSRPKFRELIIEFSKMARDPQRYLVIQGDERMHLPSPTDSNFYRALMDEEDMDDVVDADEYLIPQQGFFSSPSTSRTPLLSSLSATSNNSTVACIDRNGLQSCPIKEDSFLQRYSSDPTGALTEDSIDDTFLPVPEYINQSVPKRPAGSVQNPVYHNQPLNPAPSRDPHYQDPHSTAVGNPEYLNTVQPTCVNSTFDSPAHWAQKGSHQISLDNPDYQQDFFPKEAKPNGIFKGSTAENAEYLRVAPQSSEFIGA

HCT-116 = experiment: NCI-60 anticancer screening (SRB); format: cell-based; settings: Homo sapiens; HCT-116, colon cancer; one dose 10 μM; read-out: Growth Inhibition Percentage (GI %)
SK-MEL-2 = experiment: NCI-60 anticancer screening (SRB); format: cell-based; settings: Homo sapiens; SK-MEL-2, melanoma; one dose 10 μM; read-out: Growth Inhibition Percentage (GI %)
OVCAR-8 = experiment: NCI-60 anticancer screening (SRB); format: cell-based; settings: Homo sapiens; OVCAR-8, ovarian cancer; one dose 10 μM; read-out: Growth Inhibition Percentage (GI %)
MOLT-4 = experiment: NCI-60 anticancer screening (SRB); format: cell-based; settings: Homo sapiens; MOLT-4, leukemia; one dose 10 μM; read-out: Growth Inhibition Percentage (GI %)
MDA-MB-468 = experiment: NCI-60 anticancer screening (SRB); format: cell-based; settings: Homo sapiens; MDA-MB-468, breast cancer; one dose 10 μM; read-out: Growth Inhibition Percentage (GI %)
HS 578T = experiment: NCI-60 anticancer screening (SRB); format: cell-based; settings: Homo sapiens; HS 578T, breast cancer; one dose 10 μM; read-out: Growth Inhibition Percentage (GI %)
HOP-92 = experiment: NCI-60 anticancer screening (SRB); format: cell-based; settings: Homo sapiens; HOP-92, NSC lung cancer; one dose 10 μM; read-out: Growth Inhibition Percentage (GI %)

For `CCOC(=O)C1=C(N)N(c2ccc(C)cc2)C2=C(C(=O)CC(C)(C)C2)C1c1ccccc1Br` (racemic) [6e, (±)-Ethyl 2-amino-4–(2-bromophenyl)-7,7-dimethyl-1–(4-methylphenyl)-5-oxo-1,4,5,6,7,8-hexahydroquinoline-3-carboxylate], the inhibition at 10 µM (NCI-H226) was 15%, the IC50 (EGFR^T790M) was 0.48 ± 0.003 µM and the inhibition at 10 µM (UACC-257) was 16%. The inhibition at 10 µM (OVCAR-3) was 15%, the inhibition at 10 µM (OVCAR-5) was < 10% and the inhibition at 10 µM (CCRF-CEM) was 60%. For the same compound, the inhibition at 10 µM (UO-31) was 24%, the inhibition at 10 µM (SW-620) was 54% and the inhibition at 10 µM (U251) was 19%. It also gave an inhibition at 10 µM (PC-3) of 68%, an inhibition at 10 µM (SR) of 34% and an inhibition at 10 µM (LOX IMVI) of 11%. For the same compound, the inhibition at 10 µM (MCF7) was 43%, the IC50 (EGFR^L858R) was 0.37 ± 0.004 µM and the inhibition at 10 µM (A498) was < 10%. For the same compound, the inhibition at 10 µM (BT-549) was < 10%, the inhibition at 10 µM (OVCAR-4) was 17% and the inhibition at 10 µM (COLO 205) was 37%. For the same compound, the inhibition at 10 µM (ACHN) was 14%, the melting point was 236 to 238 °C and the inhibition at 10 µM (MALME-3M) was < 10%. The inhibition at 10 µM (K-562) was 50%, the inhibition at 10 µM (SK-OV-3) was < 10% and the inhibition at 10 µM (IGROV1) was < 10%. The IC50 (EGFR^WT) was 0.176 ± 0.07 µM, the inhibition at 10 µM (HCT-116) was 60% and the inhibition at 10 µM (SK-MEL-2) was 15%. The inhibition at 10 µM (OVCAR-8) was < 10%, the inhibition at 10 µM (MOLT-4) was 71% and the inhibition at 10 µM (MDA-MB-468) was 23%. The inhibition at 10 µM (HS 578T) was < 10% and the inhibition at 10 µM (HOP-92) was 28%.

`CCOC(=O)C1=C(N)N(c2ccc(Cl)cc2)C2=C(C(=O)CC(C)(C)C2)C1c1ccccc1Cl` (racemic) [6c, (±)-Ethyl 2-amino-4–(2-chlorophenyl)-1–(4-chlorophenyl)-7,7-dimethyl-5-oxo-1,4,5,6,7,8-hexahydroquinoline-3-carboxylate] gave an inhibition at 10 µM (NCI-H226) of 25%, an IC50 (EGFR^T790M) of 0.53 ± 0.004 µM and an inhibition at 10 µM (UACC-257) of 50%. The inhibition at 10 µM (OVCAR-3) was 44%, the inhibition at 10 µM (OVCAR-5) was < 10% and the inhibition at 10 µM (CCRF-CEM) was 40%. For the same compound, the inhibition at 10 µM (UO-31) was 51%, the inhibition at 10 µM (SW-620) was 48% and the inhibition at 10 µM (U251) was 54%. The inhibition at 10 µM (PC-3) was 76%, the inhibition at 10 µM (SR) was < 10% and the inhibition at 10 µM (LOX IMVI) was 18%. For the same compound, the inhibition at 10 µM (MCF7) was 58%, the IC50 (EGFR^L858R) was 0.5 ± 0.004 µM and the inhibition at 10 µM (A498) was < 10%. It also gave an inhibition at 10 µM (BT-549) of 40%, an inhibition at 10 µM (OVCAR-4) of 32% and an inhibition at 10 µM (COLO 205) of 62%. For the same compound, the inhibition at 10 µM (ACHN) was 40%, the melting point was 179 to 181 °C and the inhibition at 10 µM (MALME-3M) was 30%. For the same compound, the inhibition at 10 µM (K-562) was < 10%, the inhibition at 10 µM (SK-OV-3) was 29% and the inhibition at 10 µM (IGROV1) was < 10%. The IC50 (EGFR^WT) was 0.277 ± 0.12 µM, the inhibition at 10 µM (HCT-116) was 66% and the inhibition at 10 µM (SK-MEL-2) was 24%. For the same compound, the inhibition at 10 µM (OVCAR-8) was 30%, the inhibition at 10 µM (MOLT-4) was < 10% and the inhibition at 10 µM (MDA-MB-468) was 60%. For the same compound, the inhibition at 10 µM (HS 578T) was < 10% and the inhibition at 10 µM (HOP-92) was 29%.

With `CCOC(=O)C1=C(N)N(c2ccccc2)C2=C(C(=O)CC(C)(C)C2)C1c1ccccc1Cl` (racemic) [6a, (±)-Ethyl 2-amino-4–(2-chlorophenyl)-7,7-dimethyl-5-oxo-1-phenyl-1,4,5,6,7,8-hexahydroquinoline-3-carboxylate] the inhibition at 10 µM (NCI-H226) was 24%, the IC50 (EGFR^T790M) was 0.61 ± 0.005 µM and the inhibition at 10 µM (UACC-257) was 28%. The inhibition at 10 µM (OVCAR-3) was 38%, the inhibition at 10 µM (OVCAR-5) was 14% and the inhibition at 10 µM (CCRF-CEM) was 52%. For the same compound, the inhibition at 10 µM (UO-31) was 45%, the inhibition at 10 µM (SW-620) was 26% and the inhibition at 10 µM (U251) was 21%. It also gave an inhibition at 10 µM (PC-3) of 71%, an inhibition at 10 µM (SR) of 68% and an inhibition at 10 µM (LOX IMVI) of 15%. For the same compound, the inhibition at 10 µM (MCF7) was 44%, the IC50 (EGFR^L858R) was 0.49 ± 0.004 µM and the inhibition at 10 µM (A498) was < 10%. The inhibition at 10 µM (BT-549) was 22%, the inhibition at 10 µM (OVCAR-4) was 26% and the inhibition at 10 µM (COLO 205) was 35%. It also gave an inhibition at 10 µM (ACHN) of 31%, a melting point of 168 to 170 °C and an inhibition at 10 µM (MALME-3M) of 11%. For the same compound, the inhibition at 10 µM (K-562) was 59%, the inhibition at 10 µM (SK-OV-3) was < 10% and the inhibition at 10 µM (IGROV1) was < 10%. It also gave an IC50 (EGFR^WT) of 0.358 ± 0.16 µM, an inhibition at 10 µM (HCT-116) of 59% and an inhibition at 10 µM (SK-MEL-2) of 43%. It also gave an inhibition at 10 µM (OVCAR-8) of 17%, an inhibition at 10 µM (MOLT-4) of 75% and an inhibition at 10 µM (MDA-MB-468) of 50%. The inhibition at 10 µM (HS 578T) was < 10% and the inhibition at 10 µM (HOP-92) was 32%.
